Reference: article PMC9705314, “Characterization of a new potent and long-lasting single chain peptide agonist of RXFP1 in cells and in vivo translational models” (Scientific Reports, 2022)
*1 amine or outer side, *2 acyl side, *3 side chain or, on linkers, in order; H or OH if unused. Where a SMILES comes first, the peptide text is derived from it. Side-chain parts run from the residue outwards. [ ]: non-standard residue; d: D form. The star is where a group is joined. γGlu = O=C(O)[C@H](CCC(=O)[*:2])N[*:1]; Stearoyl = CCCCCCCCCCCCCCCCCC(=O)*; Nle = CCCC[C@H](N)C(=O)O; AEEA = NCCOCCOCC(=O)O; Aib = CC(C)(N)C(=O)O

Tests used:
[1] = Pharmacokinetics in Sprague-Dawley rats; type: in vivo, rat; conditions: for T1/2 (apparent terminal half-life): 1 mg/kg; for CL / AUXext: IV 1 mg/kg
Method: Sprague Dawley rats (10–12 weeks old) obtained from Charles Rivers Laboratories (Como, Iltaly) were dosed with study peptide at 1 mg/kg IV and 3 mg/kg SC as a solution in PBS (0.2 mg/mL and 0.6 mg/mL respectively). Blood samples were collected from individual animals at the following time points: 0.083, 0.25, 0.5, 1, 3, 6, 8, 24, 48 and 72 h (IV route) and 0.25, 0.5, 1, 2, 4, 8, 12, 24, 48 and 72 h (SC route). All samples, collected into K3-EDTA tubes, were centrifuged and plasma was harvested and stored at − 80 °C until analysis. Two hundred μL of 0.1% formic acid in methanol containing 10 ng/mL warfarin as internal standard were added to 50 μL of standard, QC and PK study samples to obtain the protein precipitation. Each sample was vortexed and centrifuged, for 20 min, at 17,000 rcf at 4 °C. Ten microliters of the extracted plasma samples were injected onto the column. Chromatographic separation was performed on an Ultimate 3000 (Thermo Scientific) chromatography system using an XSelect Peptide CSH C18, (50 mm × 2.1 mm I.D., 2.5 μm, 130 Å; Waters Corporation) with a flow rate of 0.500 mL/min at 60 °C and a two-solvent linear gradient system. Solvents A (water) and B (acetonitrile) contained both 0.1% formic acid. […] The Ultimate 3000 was coupled to an Orbitrap QExactive™ mass spectrometer (Thermo Scientific) in positive mode. Quantitation was performed in full scan. The optimized source parameters were as follows: ion spray voltage 2.9 kV, sheath gas flow 50 a.u., aux gas flow 15 a.u., aux T 300 °C, capillary T 320 °C, S-lens RF level 50%. Full MS parameters were as follows: mass range 150–2000, AGC target 1 × 10^6, max injection time 250 ms, resolution 70,000 (FWHM @ 200 m/z). Data processing was performed using Xcalibur 3.0 (Thermo Scientific). Ion current of the [M + 5H]5 + of the SA10SC-RLX was extracted with 5 ppm window for quantitation (814.47219 m/z). A calibration curve with 12 standard points was prepared freshly on the day of analysis by spiking appropriate amounts of an intermediate working standard solution into blank rat plasma and ranged from 1.22 to 20,000 ng/mL (0.30–4910 nM). Three QC samples, each at six concentration levels from 5.0 to 15,000 ng/mL (1.22–3690 nM), were used for all analyses. Calibration curves were prepared by plotting the analyte to internal standard peak area ratio versus concentration. Calibration standards were fit by linear regression with 1/x^2 weighting. QC samples (n = 3) were used at six concentration levels. Accepted calibration curve contained minimum 7 concentration levels within ± 20% of nominal. Accepted QCs were within ± 25% of nominal. PK parameters were calculated by non-compartmental analysis using Watson LIMS 7.5.

hRXFP1 (S69P) = target: T1, hRXFP1 (S69P) (Homo sapiens, UniProt Q9HBX9, S69P); assay: cAMP production in HEK cells expressing hRXFP1 (S69P); type: cell-based; conditions: hRXFP1 S69P mutant, n = 4 experiments in duplicate
T1 sequence (Q9HBX9 1-757 S69P): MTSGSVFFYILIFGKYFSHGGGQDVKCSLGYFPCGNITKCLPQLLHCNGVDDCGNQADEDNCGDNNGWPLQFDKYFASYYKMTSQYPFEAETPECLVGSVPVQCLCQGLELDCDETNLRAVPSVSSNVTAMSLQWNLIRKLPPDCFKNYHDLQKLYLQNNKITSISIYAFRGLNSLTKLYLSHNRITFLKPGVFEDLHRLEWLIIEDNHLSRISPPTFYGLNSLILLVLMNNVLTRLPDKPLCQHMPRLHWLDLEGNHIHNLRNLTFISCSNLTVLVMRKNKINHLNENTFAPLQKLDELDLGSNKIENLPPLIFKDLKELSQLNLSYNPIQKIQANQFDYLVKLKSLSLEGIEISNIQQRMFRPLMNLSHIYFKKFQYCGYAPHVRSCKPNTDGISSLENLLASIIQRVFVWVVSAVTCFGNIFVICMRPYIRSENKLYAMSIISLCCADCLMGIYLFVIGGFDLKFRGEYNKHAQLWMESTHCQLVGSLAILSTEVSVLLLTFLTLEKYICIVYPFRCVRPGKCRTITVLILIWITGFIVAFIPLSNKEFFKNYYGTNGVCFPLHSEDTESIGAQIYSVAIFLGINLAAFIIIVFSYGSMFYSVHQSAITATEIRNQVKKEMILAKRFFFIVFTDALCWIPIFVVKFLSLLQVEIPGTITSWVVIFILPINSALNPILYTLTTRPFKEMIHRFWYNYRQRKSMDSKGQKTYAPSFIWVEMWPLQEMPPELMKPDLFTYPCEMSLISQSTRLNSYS
Method: HEK cells were stably transduced with lentiviral constructs (Vectalys, MOI 20, batches rV2.1A1.5057 B, rV2.1A1.5056 B and rV2.1A1.5059 B) containing a bicistronic vectors encoding hRXFP1 (S69P) or hRXFP1 (F76V) or hRXFP1 (S69P/F76V) under the EF1 promoter followed by an internal ribosome entry site (IRES) elements to express the neomycin antibiotic resistance gene for selection with 500 μg/mL Geneticin (Invitrogen, #10131-019). Three days post transduction, HEK cells were grown in the presence of Genetecin. Positive individual clones were selected and amplified, and cAMP readout (nM) was used as described for other cell types at a cell density of 8000 cells/well.

wild type EA.hy926 cells = assay: xCELLigence real time impedance in wild type EA.hy926 cells; type: cell-based, human
Method: Cell impedance assays in both wild type EA.hy926 and EA.hy926_RXFP1 cell lines were performed using a MP RCTA xCELLigence Analyzer (ACEA Biosciences) on E-Plates. 20,000 cells/well were seeded in E-plates in 200 µL of growth medium and left to settle for 30 min at room temperature. Plates were then placed into the xCELLigence RTCA MP Instrument under 5% CO2 at 37 °C and impedance was continuously measured every 15 min overnight. The next day, a 4-h serum starvation was performed using the same medium but with 0.1% FCS (impedance measurement every 5 min).
Data analysis was performed using RTCA2.0 software according to ACEA recommendations. Raw impedance expressed as cell index was normalized for each well by dividing individual Cell Index values by baseline Cell index values obtained 5 min before peptide treatment in order to obtain Normalized Cell Index (NCI): mean NCI from 4 replicates for each condition are presented.

Compound | level at time molar at 12 h ([1]; Sprague-Dawley, rat, plasma, rats, SC 3 mg/kg, read-out: plasma concentration after 12 h) [nM] | T1/2 (apparent terminal half-life) ([1]; male Sprague-Dawley rats, IV 1 mg/kg in PBS, plasma, LC-HRMS, non-compartmental analysis, mean of n = 3) [h] | T1/2 (apparent terminal half-life) ([1]; male Sprague-Dawley rats, IV 1 mg/kg in PBS, plasma, LC-HRMS, non-compartmental analysis, mean of n = 3, listed as SA10SC_RLX) [h] | CL ([1]; male Sprague-Dawley rats, plasma, LC-HRMS, animal 1) [mL/min/kg] | CL ([1]; male Sprague-Dawley rats, plasma, LC-HRMS, animal 2) [mL/min/kg] | CL ([1]; male Sprague-Dawley rats, plasma, LC-HRMS, animal 3) [mL/min/kg] | AUXext ([1]; male Sprague-Dawley rats, plasma, animal 1) [%] | AUXext ([1]; male Sprague-Dawley rats, plasma, animal 2) [%] | AUXext ([1]; male Sprague-Dawley rats, plasma, animal 3) [%] | Cmax ([1]; male Sprague-Dawley rats, SC 3 mg/kg in PBS, plasma, LC-HRMS, non-compartmental analysis, mean of n = 3) [nM] | Tmax ([1]; male Sprague-Dawley rats, SC 3 mg/kg in PBS, plasma, LC-HRMS, mean of n = 3) [h] | F ([1]; male Sprague-Dawley rats, SC 3 mg/kg vs IV 1 mg/kg, mean of n = 3) [%] | AUCext ([1]; male Sprague-Dawley rats, SC 3 mg/kg, plasma, mean of n = 3) [%] | AUC ([1]; rat, male Sprague-Dawley rats, IV 1 mg/kg in PBS, plasma, LC-HRMS, non-compartmental analysis, mean of n = 3) [µM·h] | clearance ([1]; rat, male Sprague-Dawley rats, IV 1 mg/kg in PBS, plasma, LC-HRMS, non-compartmental analysis, mean of n = 3, read-out: CL (plasma clearance)) [mL/min/kg] | C0 ([1]; rat, male Sprague-Dawley rats, IV 1 mg/kg in PBS, plasma, LC-HRMS, non-compartmental analysis, mean of n = 3, read-out: Co) [µM] | Vd ([1]; rat, male Sprague-Dawley rats, IV 1 mg/kg in PBS, plasma, LC-HRMS, non-compartmental analysis, mean of n = 3, read-out: Vss) [L/kg] | AUC ([1]; rat, male Sprague-Dawley rats, SC 3 mg/kg in PBS, plasma, LC-HRMS, non-compartmental analysis, mean of n = 3) [µM·h] | cAMP response (efficacy) (hRXFP1 (S69P)) | impedance response (wild type EA.hy926 cells)
CCCCCCCCCCCCCCCCCC(=O)N[C@@H](CCC(=O)N[C@@H](CCC(=O)N[C@@H](CCC(=O)NCCOCCOCC(=O)NCCOCCOCC(=O)NCCOCCOCC(=O)NCCCC[C@H](NC(=O)[C@H](CCCCNC(C)=O)NC(=O)[C@H](CCCCN)NC(=O)[C@H](CCCNC(=N)N)NC(=O)C(C)(C)NC(=O)[C@H](CO)NC(=O)[C@H](Cc1c[nH]c2ccccc12)NC(=O)[C@@H](NC(=O)[C@H](CO)NC(=O)[C@H](CCCC)NC(=O)CNC(=O)[C@H](CCC(=O)O)NC(=O)C(C)(C)NC(=O)C(C)(C)NC(=O)[C@@H](NC(=O)[C@H](CCCCNC(C)=O)NC(=O)[C@H](C)NC(=O)[C@H](CCCNC(=N)N)NC(=O)[C@@H](NC(=O)[C@H](CCCCN)NC(=O)[C@H](CCC(=O)O)NC(=O)[C@H](CCCNC(=N)N)NC(=O)CNC(=O)[C@H](CCC(=O)O)NC(=O)[C@H](CC(C)C)NC(C)=O)C(C)C)[C@@H](C)CC)[C@@H](C)O)C(N)=O)C(=O)O)C(=O)O)C(=O)O [SA10SC-RLX] (Ac-LEGREKVRAK(Ac)I[Aib][Aib]EG[Nle]STWS[Aib]RKK(Ac)K([AEEA-AEEA-AEEA-γGlu-γGlu-γGlu-Stearoyl])-NH2) | ~1000 | 4 | 3.9 | 0.48 | 0.44 | 0.38 | 1.01 | 1.01 | 1.02 | 1500 | 8 | 74 | 1.09 | 9.57 | 0.43 | 3.2 | 0.12 | 21.2 |  | 
relaxin |  |  |  |  |  |  |  |  |  |  |  |  |  |  |  |  |  |  | reduced in all RXFP1 mutants compared to the wild type construct | Neither relaxin nor SA10SC-RLX induced a response
